The values below come from ChEMBL document CHEMBL5131473, “One-pot synthesis of oxoaporphines as potent antitumor agents and investigation of their mechanisms of actions” (Eur J Med Chem, 2022).

SMILES strings stand for the structures. Active and inactive are the calls of the source. The rule behind the calls is not given here.

The subject of series [1] is T-24. Nature of the series: Induction of Ca2+ production in human T24 cells assessed as increase in intracellular Ca2+ concentration at 10 uM by Fluo3-AM staining based fluorescence microscopic method. It is filed as functional, cell-based.
The test system of series [2] is T-24. Briefly: Induction of DNA damage in human T24 cells assessed as increase in gamma H2AX expression at 10 to 15 uM incubated for 24 hrs by Western blot analysis. In kind it is functional, cell-based. To be noted: dose 10-15 µM.
Series [3] concerns T-24. Nature of the series: Inhibition of colony formation in human T24 cells upto 5 uM incubated for 24 hrs and measured for 10 days. In kind it is functional. To be noted: up to 5 µM.
Series [4] is described as follows: Toxicity in human WI-38 cells assessed as wound closure at 5 uM measured after 24 hrs by fluorescence microscopy based wound healing assay. In kind it is cell-based. The following applies: wi-38, 24 h.
Series [5] deals with T-24. Nature of the series: Induction of DNA damage in human T24 cells assessed as increase in gamma H2AX phosphorylation at 10 uM incubated for 24 hrs by Hoechst33258 staining based immunofluorescence assay. It is filed as functional, cell-based.
The test system of series [6] is T-24. Nature of the series: Induction of mitochondrial mediated apoptosis in human T24 cells assessed as upregulation of cytochrome c expression at 10 to 15 uM incubated for 24 hrs by Western blotting analysis. It is filed as functional, cell-based. The following applies: dose 10-15 µM. Background: Immunoblotting shows a protein as a band on a membrane.
Series [7] relates to T-24. Nature of the series: Induction of mitochondrial mediated apoptosis in human T24 cells assessed as upregulation of apaf-1 expression at 10 to 15 uM incubated for 24 hrs by Western blotting analysis. In kind it is functional, cell-based. To be noted: dose 10-15 µM.
In series [8] the test system is T-24. Nature of the series: Induction of ROS accumulation in human T24 cells assessed as increase in intracellular ROS level at 10 uM by […] based flow cytometry. It is filed as functional, cell-based.
For series [9], the system named is T-24. Briefly: Induction of mitochondrial ROS generation in human T24 cells at 10 uM measured after 24 hrs by Mitotracker Red dye based confocal microscopy method. It is filed as functional, cell-based.
The subject of series [10] is T-24. Briefly: Induction of apoptosis in human T24 cells assessed as early apoptotic cells at 15 uM incubated for 24 hrs by Annexin-V/PI staining based flow cytometry analysis (reference value: 3.27 %). It is filed as functional. In general terms: A flow cytometer gives signals particle by particle.
The subject of series [11] is T-24. Briefly: Induction of apoptosis in human T24 cells assessed as necrotic cells at 20 uM incubated for 24 hrs by Annexin-V/PI staining based flow cytometry analysis (reference value: 1.92 %). It is filed as functional.
Series [12] relates to T-24. Nature of the series: Induction of apoptosis in human T24 cells assessed as condensed chromatin at 10 uM by Hoechst33258 staining based fluorescence microscopy. In kind it is functional, cell-based.
Series [13] deals with T-24. Nature of the series: Induction of mitochondrial membrane potential dysfunction in human T24 cells assessed as nuclear condensation at 10 to 15 uM by mito-tracker green dye based fluorescence microscopy. It is filed as functional, cell-based. To be noted: dose 10-15 µM.
Series [14] deals with T-24. Nature of the series: Induction of DNA damage in human T24 cells assessed as increase in […] p53 expression at 0.5 to 1 uM incubated for 24 hrs by Western blot analysis. In kind it is functional, cell-based. To be noted: dose 0.5-1 µM.
In series [15] the test system is T-24. Briefly: Inhibition of cell migration in human T24 cells assessed as recovery of wound area at 0.25 uM measured after 24 hrs by wound healing assay based fluorescence microscopy. In kind it is functional. Also on record: scale not given: the % may be the effect or the level left.
Series [16] relates to T-24. Briefly: Induction of DNA damage in human T24 cells assessed as increase in gamma H2AX phosphorylation at 0.5 uM incubated for 24 hrs by Hoechst33258 staining based immunofluorescence assay. It is filed as functional, cell-based.
For series [17], the system named is T-24. Nature of the series: Induction of mitochondrial membrane potential dysfunction in human T24 cells assessed as shrinking mitochondria at 0.5 uM incubated for 24 hrs by TEM analysis. In kind it is functional, cell-based.
Series [18] has as its system T-24. Nature of the series: Induction of apoptosis in human T24 cells assessed as increase in caspase 9 activity at 1 uM (Rvb= 7.2%). It is filed as functional.
Series [19] relates to T-24. Briefly: Induction of cell cycle arrest in human T24 cells assessed as accumulation of cells at G1 phase at 1 uM incubated for 24 hrs by propidium iodide/RNase A staining based flow cytometry analysis (reference value: 51.71 %). In kind it is functional.
Series [20] concerns T-24. Nature of the series: Induction of cell cycle arrest in human T24 cells assessed as accumulation of cells at S phase at 1 uM incubated for 24 hrs by propidium iodide/RNase A staining based flow cytometry analysis (reference value: 42.47 %). In kind it is functional.
In series [21] the test system is T-24. Nature of the series: Induction of apoptosis in human T24 cells assessed as necrotic cells at 1 uM incubated for 24 hrs by Annexin-V/PI staining based flow cytometry analysis (reference value: 1.92 %). In kind it is functional.
In series [22] the test system is T-24. Briefly: Induction of apoptosis in human T24 cells assessed as early apoptotic cells at 1 uM incubated for 24 hrs by Annexin-V/PI staining based flow cytometry analysis (reference value: 3.27 %). It is filed as functional.
Series [23] relates to T-24. Nature of the series: Induction of apoptosis in human T24 cells assessed as contracted small fragmented nuclei at 0.5 uM by Hoechst33258 staining based fluorescence microscopy. It is filed as functional, cell-based.
For series [24], the system named is T-24. Briefly: Induction of mitochondrial membrane potential dysfunction in human T24 cells assessed as increase in fragmentation at 0.5 uM incubated for 24 hrs by TEM analysis. In kind it is functional, cell-based.
Series [25] relates to T-24. Briefly: Induction of DNA damage in human T24 cells assessed as increase in gamma H2AX expression at 2 to 4 uM incubated for 24 hrs by Western blot analysis. In kind it is functional, cell-based. The following applies: dose 2-4 µM.
Series [26] relates to T-24. Briefly: Induction of DNA damage in human T24 cells assessed as increase in gamma H2AX phosphorylation at 2 uM incubated for 24 hrs by Hoechst33258 staining based immunofluorescence assay. It is filed as functional, cell-based.
The subject of series [27] is T-24. Nature of the series: Cytotoxicity against human T24 cells assessed as decrease in cell viability at 2 uM by MTT assay. The following applies: t-24, 72 h, TDE = time-dependent effect. It is filed as toxicity, cell-based. (In general: Tetrazolium assays rely on reduction of a dye to a coloured formazan, in cell work by metabolically active cells.)
Series [28] deals with T-24. Briefly: Inhibition of colony formation in human T24 cells at 0.08 uM incubated for 24 hrs and measured for 10 days. In kind it is functional, cell-based.
Series [29] has as its system T-24. Briefly: Inhibition of cell migration in human T24 cells assessed as recovery of wound area at 1 uM measured after 24 hrs by wound healing assay based fluorescence microscopy. In kind it is functional. Also on record: scale not given: the % may be the effect or the level left.
Series [30] relates to T-24. Nature of the series: Induction of mitochondrial membrane potential dysfunction in human T24 cells assessed as decrease in ATP production at 4 uM. On the set-up: scale not given: the % may be the effect or the level left. In kind it is functional.
In series [31] the test system is T-24. Nature of the series: Induction of mitochondrial membrane potential dysfunction in human T24 cells assessed as change in morphology at 2 to 4 uM by Mitotracker green dye based fluorescence microscopy. In kind it is functional, cell-based. To be noted: dose 2-4 µM.
Series [32] has as its system T-24. Nature of the series: Induction of mitochondrial mediated apoptosis in human T24 cells assessed as upregulation of apaf-1 expression at 2 to 4 uM incubated for 24 hrs by Western blotting analysis. The following applies: dose 2-4 µM. It is filed as functional, cell-based.
Series [33] has as its system T-24. Briefly: Induction of ROS generation in human T24 cells at 2 uM by fluorescence microscopy. It is filed as functional, cell-based.
The subject of series [34] is T-24. Nature of the series: Induction of apoptosis in human T24 cells assessed as increase in caspase 9 activity at 2uM (Rvb= 7.2%). In kind it is functional.
Series [35] relates to T-24. Briefly: Induction of cell cycle arrest in human T24 cells assessed as accumulation of cells at S phase at 4 uM incubated for 24 hrs by propidium iodide/RNase A staining based flow cytometry analysis (reference value: 42.47 %). In kind it is functional.
Series [36] has as its system T-24. Nature of the series: Induction of apoptosis in human T24 cells assessed as early apoptotic cells at 4 uM incubated for 24 hrs by Annexin-V/PI staining based flow cytometry analysis (reference value: 3.27 %). It is filed as functional.
Series [37] deals with T-24. Nature of the series: Induction of apoptosis in human T24 cells assessed as early apoptotic cells at 6 uM incubated for 24 hrs by Annexin-V/PI staining based flow cytometry analysis (reference value: 3.27 %). It is filed as functional.
The test system of series [38] is T-24. Nature of the series: Induction of mitochondrial membrane potential dysfunction in human T24 cells assessed as mitochondrial fragment condensation at 2 to 4 uM by mito-tracker green dye based fluorescence microscopy. It is filed as functional, cell-based. To be noted: dose 2-4 µM.

As to `O=C1c2ccccc2-c2cccc3ccnc1c23`, the result with T-24 [1], with T-24 [2], in the series with T-24 [5], in the series with T-24 [6], with T-24 [7] and in the series with T-24 [8] was Active. Further, the outcome with T-24 [9], with T-24 [12] and in the series with T-24 [13] was Active. In the series on T-24 [3], the “inhibition (INH)” value turned out to be 100%. Besides, the results for the Activity entry (in [4]; in the series on T-24 [10]; in the series on T-24 [11]) were “Non-Toxic”, 32.9% and 2.31%, respectively.

With `O=C1c2ccccc2-c2ccc([N+](=O)[O-])c3ccnc1c23`, the result in the series with T-24 [14], with T-24 [16], with T-24 [17], in the series on T-24 [23] and with T-24 [24] was Active. The Activity turned out to be 15.9% in the series with T-24 [15]; 53.6% in the series with T-24 [18]; 3.53% in the series with T-24 [19]; 35.21% with T-24 [20]; 1.57% in the series with T-24 [21]; 39.5% in the series on T-24 [22].

As for `O=C1c2cc([N+](=O)[O-])ccc2-c2ccc([N+](=O)[O-])c3ccnc1c23`, the result in the series with T-24 [25], with T-24 [26], in the series on T-24 [31], in the series with T-24 [32], with T-24 [33] and in the series on T-24 [38] was Active. The Activity entry is listed as “Tde” in the series on T-24 [27]; 20.1% in the series on T-24 [29]; 43.1% in the series on T-24 [30]; 27.5% with T-24 [34]; 70.53% in the series on T-24 [35]; 32.3% in the series with T-24 [36]. The Activity in the series on T-24 [37] is listed as 36.2%. Further, the inhibition entry with T-24 [28] is “Active”.
